Results from patent publication US7998989B2, “2-Imino-1,3-thiazoline-based compounds and T-type calcium channel inhibitors containing the same” (Korea Institute of Science and Technology, priority 2007, dated 2011).

Tests used:
[1] = target: T1, α1G T-type calcium channel (Homo sapiens, UniProt O43497); experiment: Assay for % inhibiting activity against T-type calcium channel using FDSS6000 (fluo-3 calcium imaging, KCl activation); assay type: cell-based; settings: HEK293, 10 μM; HEK293 cells stably expressing α1G T-type calcium channel and Kir2.1; compounds of the examples; read-out: FDSS (% inhibition)/10uM
T1 construct: host or cells: HEK293
Experimental: In the present invention, in order to examine an efficient inhibitor against the T-type calcium channel, a primary assay for T-type calcium channel inhibiting activity was conducted by a high-efficient assay using FDSS6000, wherein mammal HEK293 cell lines (originated from human kidney carcinoma cells) that specifically express α1G of the T-type calcium channel was used for primary assay. Through the primary assay, compounds that show meaningful inhibition effects were selected. The selected compounds were used in a second assay for T-type calcium channel inhibiting activity using an electrophysiological whole cell patch clamp method, wherein mammal HEK293 cell lines (originated from human kidney carcinoma cells) that specifically express α1G of the T-type calcium channel was used for the second assay. Mibefradil, which had been developed as a T-type calcium channel inhibitor, was used as a reference.
At 12-24 hours before being used for this assay, cells of HEK293 cell line (α1G cell line: KCTC 10519BP, Korean Collection for Type Cultures), which stably express α1G T-type calcium channel and Kir2.1, were sub-cultured in a poly-L-lysine treated 96-well plate with the density of 4×10^4 per well using a 96-well cell dispenser (Titertek). On the day of assay, the 96-well plate to which the cells were attached was washed three times with HEPES buffer solution (150 mM of NaCl, 5 mM of KCl, 1 mM of MgCl2, 2 mM of CaCl2, 10 mM of HEPES, 10 mM of glucose; pH 7.4) using a 96-well plate automatic washing device (Bio Tek), then reacted with HEPES buffer solution containing 5 μM fluo-3/AM and 0.001% Pluronic F-127 at room temperature for 1 hour, to label with fluorescent dye, and then further washed two times with HEPES buffer solution.
Thereafter, at 10 minutes before the measurement using device FDSS6000, washing with HEPES buffer solution containing 10 mM CaCl2 was conducted once more, and the final volume was adjusted to 81 μl. Besides the above 96-well plate containing the cells, two additional drug 96-well plates were provided, wherein the 96-well plates contained an inhibiting drug and KCl (final concentration: 75 mM) for activating the T-type calcium channel, respectively. Since most of cell-based HTS devices are equipped with a liquid application system for injection of drug, but have no liquid sucking system, the inhibiting drug to be tested and KCl were respectively provided at a five-times higher concentration in 10 mM CaCl2 HEPES buffer solution at the amount of 27 μl, diluted by five-times at the final cell plate volume of 135 μl, and then used in this test. The concrete method of measurement using FDSS6000 was as follows. After recording the reference value of 20 seconds, the change of intracellular Ca^2+ concentration that was induced by treatment of the inhibiting drug to be tested for 75 seconds followed by administration of KCl was measured, wherein the percentage (%) inhibition effect of the test drug, through estimating the area of ratio value of 340/380 in the control without treatment of the test drug, was 100%. As a reference drug, 10 μM mibefradil was used.
For accurate calcium imaging, the light source of 4 xenon lamps in FDSS6000 were radiated to selectively expose the cells to the excitation wavelength (340 nm and 380 nm) by a computer-controlled filter wheel. Data was obtained at intervals of 1.23 seconds. The emitter fluorescence light inflowed through a long-pass filter was obtained as an average 340/380 ratio value for each well in the 96-wells by using a CCD camera and a digital fluorescence analyzer in FDSS6000. All image data and analyses were obtained by using a FDSS6000-exclusive program from Hamamatsu Photonics.
The obtained results are shown in Table 2 (the results from the compounds according to the examples of the present invention) and Table 3 (the results from the compounds according to the comparative example where R6 is a phenyl group) [FDSS (% inhibition) 10 μM].

T1 sequence (O43497 whole entry): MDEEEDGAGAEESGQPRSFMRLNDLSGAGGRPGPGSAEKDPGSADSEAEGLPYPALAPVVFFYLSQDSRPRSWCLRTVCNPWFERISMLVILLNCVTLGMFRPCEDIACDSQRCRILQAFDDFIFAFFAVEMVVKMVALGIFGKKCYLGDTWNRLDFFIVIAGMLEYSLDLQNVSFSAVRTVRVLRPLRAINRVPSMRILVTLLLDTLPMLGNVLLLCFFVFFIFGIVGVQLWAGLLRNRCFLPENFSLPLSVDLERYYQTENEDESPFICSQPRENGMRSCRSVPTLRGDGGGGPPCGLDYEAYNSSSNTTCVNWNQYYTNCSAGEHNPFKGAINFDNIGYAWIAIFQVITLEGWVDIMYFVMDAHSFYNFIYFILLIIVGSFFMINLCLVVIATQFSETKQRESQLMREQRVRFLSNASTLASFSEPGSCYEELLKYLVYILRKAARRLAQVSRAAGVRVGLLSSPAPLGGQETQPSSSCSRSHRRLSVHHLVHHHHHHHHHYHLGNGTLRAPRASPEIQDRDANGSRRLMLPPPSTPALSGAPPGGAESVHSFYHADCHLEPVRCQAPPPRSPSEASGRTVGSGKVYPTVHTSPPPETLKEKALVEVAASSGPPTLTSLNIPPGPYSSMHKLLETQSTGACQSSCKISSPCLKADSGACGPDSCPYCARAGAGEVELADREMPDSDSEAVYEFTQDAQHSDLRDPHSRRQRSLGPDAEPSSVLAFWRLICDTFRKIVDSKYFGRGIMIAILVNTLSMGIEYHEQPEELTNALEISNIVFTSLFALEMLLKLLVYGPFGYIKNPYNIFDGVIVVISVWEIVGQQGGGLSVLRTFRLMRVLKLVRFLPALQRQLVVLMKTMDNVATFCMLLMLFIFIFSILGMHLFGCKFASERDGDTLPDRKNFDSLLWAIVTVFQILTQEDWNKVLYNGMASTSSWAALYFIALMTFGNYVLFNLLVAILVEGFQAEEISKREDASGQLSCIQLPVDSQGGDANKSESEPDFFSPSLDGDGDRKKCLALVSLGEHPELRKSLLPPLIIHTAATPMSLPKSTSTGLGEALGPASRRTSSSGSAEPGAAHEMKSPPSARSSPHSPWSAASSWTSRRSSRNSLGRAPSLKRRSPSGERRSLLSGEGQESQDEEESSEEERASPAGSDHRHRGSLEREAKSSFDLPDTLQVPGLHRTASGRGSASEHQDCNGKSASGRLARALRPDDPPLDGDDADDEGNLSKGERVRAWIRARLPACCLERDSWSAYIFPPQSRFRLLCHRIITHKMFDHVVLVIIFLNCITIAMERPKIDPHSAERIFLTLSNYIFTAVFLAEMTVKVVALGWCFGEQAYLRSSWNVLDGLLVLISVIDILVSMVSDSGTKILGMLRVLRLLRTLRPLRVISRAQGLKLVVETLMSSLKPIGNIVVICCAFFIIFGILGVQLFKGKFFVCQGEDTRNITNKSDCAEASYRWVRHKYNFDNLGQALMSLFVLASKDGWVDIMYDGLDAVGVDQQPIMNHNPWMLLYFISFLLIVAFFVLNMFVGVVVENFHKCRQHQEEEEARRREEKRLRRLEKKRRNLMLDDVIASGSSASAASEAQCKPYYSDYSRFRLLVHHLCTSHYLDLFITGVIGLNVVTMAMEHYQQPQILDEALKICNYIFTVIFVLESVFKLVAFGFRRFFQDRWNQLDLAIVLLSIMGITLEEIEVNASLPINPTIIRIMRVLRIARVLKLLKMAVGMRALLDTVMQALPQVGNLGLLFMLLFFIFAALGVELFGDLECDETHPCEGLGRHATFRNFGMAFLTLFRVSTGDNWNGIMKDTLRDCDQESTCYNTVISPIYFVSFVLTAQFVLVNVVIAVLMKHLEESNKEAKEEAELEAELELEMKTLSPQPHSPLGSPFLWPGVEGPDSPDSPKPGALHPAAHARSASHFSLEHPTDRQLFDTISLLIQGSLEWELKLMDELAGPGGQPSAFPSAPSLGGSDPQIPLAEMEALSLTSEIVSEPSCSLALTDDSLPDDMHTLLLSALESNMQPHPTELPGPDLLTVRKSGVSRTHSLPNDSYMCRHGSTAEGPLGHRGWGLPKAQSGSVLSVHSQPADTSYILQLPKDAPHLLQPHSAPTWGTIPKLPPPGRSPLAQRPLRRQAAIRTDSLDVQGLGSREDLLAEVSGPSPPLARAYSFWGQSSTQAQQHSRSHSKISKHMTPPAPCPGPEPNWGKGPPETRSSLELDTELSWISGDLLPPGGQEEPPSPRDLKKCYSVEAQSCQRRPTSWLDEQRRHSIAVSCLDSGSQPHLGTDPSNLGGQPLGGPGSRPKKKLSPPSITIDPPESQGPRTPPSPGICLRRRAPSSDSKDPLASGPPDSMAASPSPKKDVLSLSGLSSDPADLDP

SMILES	inhibition at 10 µM [1] [%]	melting point [°C]
CN1C(=NC2CCCCC2)SCC1CC(=O)Nc1ccc(C(C)(C)C)cc1.Cl (centres unmarked) [KHG24073, (2-cyclohexylimino-3-methyl-1,3-thiazolidine-4-yl)-N-(4-t-butylphenyl)-acetamide hydrochloride]	57.3	234 to 235.5
COc1cccc(NC(=O)CC2CSC(=NC3CCCCC3)N2C)c1.Cl (centres unmarked) [KHG24076, (2-cyclohexylimino-3-methyl-1,3-thiazolidine-4-yl)-N-(3-methoxyphenyl)-acetamide hydrochloride]	39.9	156 to 158
CN1C(=NC2CCCCC2)SCC1CC(=O)Nc1ccc(F)cc1F.Cl (centres unmarked) [KHG24081, (2-cyclohexylimino-3-methyl-1,3-thiazolidine-4-yl)-N-(2,4-difluorophenyl)-acetamide hydrochloride]	38.3	206 to 208
Cc1ccccc1CNC(=O)CC1CSC(=NC2CCCCC2)N1C.Cl (centres unmarked) [KHG24082, (2-cyclohexylimino-3-methyl-1,3-thiazolidine-4-yl)-N-(2-methylbenzyl)-acetamide hydrochloride]	37.4	220 to 221
CCOC(=O)CCOc1cccc(NC(=O)CC2CSC(=NC3CCCCC3)N2C)c1.Cl (centres unmarked) [KHG24085, (2-cyclohexylimino-3-methyl-1,3-thiazolidine-4-yl)-N-(3-ethoxycarbonylethoxyphenyl)-acetamide hydrochloride]	52.6	241 to 242
CN1C(=NC2CCCCC2)SCC1CC(=O)NCc1ccc(Cl)c(Cl)c1.Cl (centres unmarked) [KHG24088, (2-cyclohexylimino-3-methyl-1,3-thiazolidine-4-yl)-N-(3,4-dichlorobenzyl)-acetamide hydrochloride]	43.2	215 to 216
COc1ccc(NC(=O)CC2CSC(=NC3CCCCC3)N2C)cc1OC.Cl (centres unmarked) [KHG24090, (2-cyclohexylimino-3-methyl-1,3-thiazolidine-4-yl)-N-(3,4-dimethoxyphenyl)-acetamide hydrochloride]	32.1	233 to 234
Cc1ccc(NC(=O)CC2CSC(=NC3CCCCC3)N2C)cc1F.Cl (centres unmarked) [KHG24091, (2-cyclohexylimino-3-methyl-1,3-thiazolidine-4-yl)-N-(3-fluoro-4-methylphenyl)-acetamide hydrochloride]	30.3	210 to 212
CN1C(=NC2CCCC2)SCC1CC(=O)Nc1ccc(F)cc1Cl.Cl (centres unmarked) [KHG24095, (2-cyclopentylimino-3-methyl-1,3-thiazolidine-4-yl)-N-(2-chloro-4-fluorophenyl)-acetamide hydrochloride]	30.5	209 to 210.5
CN1C(=NC2CCCC2)SCC1CC(=O)Nc1ccc(Br)cc1.Cl (centres unmarked) [KHG24098, (2-cyclopentylimino-3-methyl-1,3-thiazolidine-4-yl)-N-(4-bromophenyl)-acetamide hydrochloride]	50.5	228 to 228.5
CN1C(=NC2CCCC2)SCC1CC(=O)Nc1ccc(Oc2ccccc2)cc1.Cl (centres unmarked) [KHG24099, (2-cyclopentylimino-3-methyl-1,3-thiazolidine-4-yl)-N-(4-phenoxyphenyl)-acetamide hydrochloride]	58.2	230 to 230.5
CN1C(=NC2CCCC2)SCC1CC(=O)Nc1cc(Cl)cc(Cl)c1.Cl (centres unmarked) [KHG24100, (2-cyclopentylimino-3-methyl-1,3-thiazolidine-4-yl)-N-(3,5-dichlorophenyl)-acetamide hydrochloride]	60.8	231 to 232.5
CN1C(=NC2CCCC2)SCC1CC(=O)Nc1cc(Cl)ccc1F.Cl (centres unmarked) [KHG24103, (2-cyclopentylimino-3-methyl-1,3-thiazolidine-4-yl)-N-(5-chloro-2-fluorophenyl)-acetamide hydrochloride]	45	214 to 216
CN1C(=NC2CCCC2)SCC1CC(=O)Nc1cc([N+](=O)[O-])ccc1F.Cl (centres unmarked) [KHG24104, (2-cyclopentylimino-3-methyl-1,3-thiazolidine-4-yl)-N-(2-fluoro-5-nitrophenyl)-acetamide hydrochloride]	34.3	234.5 to 236
CN1C(=NC2CCCC2)SCC1CC(=O)Nc1ccc(Cl)cc1F.Cl (centres unmarked) [KHG24105, (2-cyclopentylimino-3-methyl-1,3-thiazolidine-4-yl)-N-(4-chloro-2-fluorophenyl)-acetamide hydrochloride]	40.4	228 to 230.5
CN1C(=NC2CCCC2)SCC1CC(=O)Nc1ccc(Cl)cc1.Cl (centres unmarked) [KHG24106, (2-cyclopentylimino-3-methyl-1,3-thiazolidine-4-yl)-N-(4-chlorophenyl)-acetamide hydrochloride]	49.4	215 to 216
CN1C(=NC2CCCCC2)SCC1CC(=O)Nc1cccc([N+](=O)[O-])c1.Cl (centres unmarked) [KHG24108, (2-cyclohexylimino-3-methyl-1,3-thiazolidine-4-yl)-N-(3-nitrophenyl)-acetamide hydrochloride]	44.4	207
CN1C(=NC2CCCCC2)SCC1CC(=O)Nc1cccc(F)c1.Cl (centres unmarked) [KHG24109, (2-cyclohexylimino-3-methyl-1,3-thiazolidine-4-yl)-N-(3-fluorophenyl)-acetamide hydrochloride]	48.4	238 to 239.5
Cc1cc(NC(=O)CC2CSC(=NC3CCCCC3)N2C)ccc1Br.Cl (centres unmarked) [KHG24111, (2-cyclohexylimino-3-methyl-1,3-thiazolidine-4-yl)-N-(4-bromo-3-methylphenyl)-acetamide hydrochloride]	67.7	237 to 238
CN1C(=NC2CCCCC2)SCC1CC(=O)NCc1ccc(F)cc1.Cl (centres unmarked) [KHG24112, (2-cyclohexylimino-3-methyl-1,3-thiazolidine-4-yl)-N-(4-fluorobenzyl)-acetamide hydrochloride]	30.3	200 to 201
CC(C)c1ccc(NC(=O)CC2CSC(=NC3CCCC3)N2C)cc1.Cl (centres unmarked) [KHG24115, (2-cyclopentylimino-3-methyl-1,3-thiazolidine-4-yl)-N-(4-isopropylphenyl)-acetamide hydrochloride]	49.9	213 to 215.5
CCCCc1ccc(NC(=O)CC2CSC(=NC3CCCC3)N2C)cc1.Cl (centres unmarked) [KHG24116, (2-cyclopentylimino-3-methyl-1,3-thiazolidine-4-yl)-N-(4-n-butylphenyl)-acetamide hydrochloride]	65.4	216 to 217.5
CN1C(=NC2CC2)SCC1CC(=O)Nc1ccc(Oc2ccccc2)cc1.Cl (centres unmarked) [KHG24141, (2-cyclopropylimino-3-methyl-1,3-thiazolidine-4-yl)-N-(4-phenoxyphenyl)-acetamide hydrochloride]	35.7	219.5 to 220
CCCCc1ccc(NC(=O)CC2CSC(=NC3CC3)N2C)cc1.Cl (centres unmarked) [KHG24152, (2-cyclopropylimino-3-methyl-1,3-thiazolidine-4-yl)-N-(4-n-butylphenyl)-acetamide hydrochloride]	33.9	227.5 to 228.5
CN1C(=NC2CCCC2)SCC1CC(=O)NCc1ccc(Cl)cc1.Cl (centres unmarked) [KHG24157, (2-cyclopentylimino-3-methyl-1,3-thiazolidine-4-yl)-N-(4-chlorobenzyl)-acetamide hydrochloride]	36.7	180 to 182
